# Laboratory results from patent US6277825A (priority 1999, dated 2001).
# pKi: −log10 of the molar value. Values joined by “and” are separate entries in the source; they are usually repeats but may differ in a detail not shown here. Equal values may be shown once.
# Tests used:
# [1] = system: young (<2 weeks old) mice; assay type: in vivo; conditions: mouse, in vivo
# CF No. 1 mice = conditions: mouse, in vivo
# [2] = system: young (<2 weeks old) mice; assay type: in vivo; conditions: mouse, in vivo; remark: listed apart in the source
# [3] = system: young (<2 weeks old) mice; assay type: in vivo; conditions: mouse, in vivo; remark: listed apart in the source
# [4] = system: Frings audiogenic seizure-susceptible mice; conditions: mouse, in vivo
# NR1-1b/NR2B NMDA subtype = biological target: T1, NR1-1b/NR2B NMDA subtype (Homo sapiens, UniProt Q05586+Q13224); assay: cell-based
# T1 construct: expressed in transfected cells; host or cells: oocytes
# CF #1 Mice = system: CF #1 Mice; design: TD50: unit not given beside the values; conditions: mouse, in vivo
# T1 sequence (Q13224 27-1484, other chains not shown): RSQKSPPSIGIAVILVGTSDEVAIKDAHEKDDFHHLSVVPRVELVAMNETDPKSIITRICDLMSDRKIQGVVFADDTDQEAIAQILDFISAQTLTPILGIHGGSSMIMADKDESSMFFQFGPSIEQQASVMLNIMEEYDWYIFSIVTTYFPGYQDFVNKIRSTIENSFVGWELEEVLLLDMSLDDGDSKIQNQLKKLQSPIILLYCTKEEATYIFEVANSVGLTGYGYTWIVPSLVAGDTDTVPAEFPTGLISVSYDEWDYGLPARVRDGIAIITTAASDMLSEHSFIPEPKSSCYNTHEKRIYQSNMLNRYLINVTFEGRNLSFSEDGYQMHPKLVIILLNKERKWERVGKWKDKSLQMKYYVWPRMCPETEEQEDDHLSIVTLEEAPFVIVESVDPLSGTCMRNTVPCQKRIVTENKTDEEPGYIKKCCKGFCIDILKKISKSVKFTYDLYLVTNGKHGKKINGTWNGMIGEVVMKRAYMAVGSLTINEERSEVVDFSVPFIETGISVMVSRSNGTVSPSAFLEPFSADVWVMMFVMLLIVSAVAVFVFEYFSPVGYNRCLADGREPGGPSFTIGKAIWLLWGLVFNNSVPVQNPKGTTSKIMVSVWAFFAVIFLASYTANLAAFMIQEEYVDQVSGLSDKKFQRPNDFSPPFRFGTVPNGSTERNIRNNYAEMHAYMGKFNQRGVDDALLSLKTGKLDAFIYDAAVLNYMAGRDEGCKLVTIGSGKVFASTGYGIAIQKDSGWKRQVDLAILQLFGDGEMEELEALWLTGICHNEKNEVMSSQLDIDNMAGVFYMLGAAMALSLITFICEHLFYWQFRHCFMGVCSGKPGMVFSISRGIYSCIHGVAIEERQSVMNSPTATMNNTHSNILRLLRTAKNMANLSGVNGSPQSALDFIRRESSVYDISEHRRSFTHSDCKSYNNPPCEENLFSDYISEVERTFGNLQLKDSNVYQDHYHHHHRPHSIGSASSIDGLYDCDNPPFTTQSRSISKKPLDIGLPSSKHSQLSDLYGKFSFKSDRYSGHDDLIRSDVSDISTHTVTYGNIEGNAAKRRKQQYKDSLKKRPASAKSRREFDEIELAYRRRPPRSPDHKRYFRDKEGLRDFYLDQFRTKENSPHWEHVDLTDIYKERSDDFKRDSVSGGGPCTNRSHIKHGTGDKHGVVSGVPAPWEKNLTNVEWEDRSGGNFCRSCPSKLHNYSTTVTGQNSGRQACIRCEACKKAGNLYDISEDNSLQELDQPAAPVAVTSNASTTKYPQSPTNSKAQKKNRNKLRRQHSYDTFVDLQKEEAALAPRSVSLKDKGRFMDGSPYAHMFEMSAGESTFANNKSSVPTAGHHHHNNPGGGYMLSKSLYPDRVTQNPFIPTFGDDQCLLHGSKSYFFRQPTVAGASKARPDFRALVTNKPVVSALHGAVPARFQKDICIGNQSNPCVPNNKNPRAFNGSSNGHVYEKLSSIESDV
Compound,"Righting Reflex, mice that lost reflex/tested [1]",anticonvulsant activity (CF No. 1 mice),"Catalepsy Test, positive mice/tested [2]","Sleepy Test, positive mice/tested [3]",other results
Conantokin L [Con L],2/4 and 3/4,anticonvulsant activity,4/4 and 3/4,4/4,–
"CC[C@H](C)[C@H](NC(=O)[C@H](CC(N)=O)NC(=O)[C@H](CC(C(=O)O)C(=O)O)NC(=O)[C@H](CCCNC(=N)N)NC(=O)[C@H](C)NC(=O)[C@H](CC(C)C)NC(=O)[C@H](CC(C(=O)O)C(=O)O)NC(=O)[C@H](C)NC(=O)[C@H](C)NC(=O)[C@H](CCSC)NC(=O)[C@H](CCCCN)NC(=O)[C@H](C)NC(=O)[C@@H](NC(=O)[C@H](CC(C(=O)O)C(=O)O)NC(=O)[C@H](CC(C(=O)O)C(=O)O)NC(=O)[C@H](CCC(=O)O)NC(=O)CN)C(C)C)C(=O)N[C@@H](C)C(=O)N[C@@H](CCCCN)C(=O)NCC(=O)N[C@H]1CSSC[C@@H](C(=O)N[C@@H](Cc2ccc(O)cc2)C(=O)N2CCC[C@H]2C(=O)O)NC(=O)[C@H](CC(N)=O)NC(=O)[C@H](C(C)C)NC(=O)[C@H](CCCCN)NC1=O [Con R, Conantokin R]",–,–,–,–,"P.I. (TD50/ED50) [4]: 17; Protective Index, PI (TD50/ED50) [4]: 18; TD50 [4]: 0.228; protective index relative to that of valproic acid [4]: at least eight times better; pKi (NR1-1b/NR2B NMDA subtype): 6.85; inhibition at 3 µM (NR1-1b/NR2B NMDA subtype; read-out: inhibition of the current produced in response to glutamate and glycine): ~95%; P.I. (TD50/ED50) (CF #1 Mice): 3.6; TD50 (CF #1 Mice): ~ 0.300"
Conantokin Gm [Con Gm],–,anticonvulsant activity,–,–,–
Conantokin Oc [Con Oc],0/3,–,0/3,2/3 and 0/3,–
Conantokin Qu [Con Qu],–,anticonvulsant activity,–,–,–
Conantokin Ca2 [Con Ca2],–,anticonvulsant activity,–,–,–
